Structures can show the parent of a compound that is named as a salt.
Key:
Type in all cases: biochemical
Jak2 (a.a. 828-1132) = Jak2 (a.a. 828-1132) (Homo sapiens (Human), UniProt O60674); test: In vitro JAK kinase assay (HTRF, phosphorylation of a biotinylated peptide), JAK2; details: measured at 1 mM ATP
Procedure, shortened: (§1)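 N-terminally His-tagged catalytic domains, baculovirus-expressed in insect cells and purified, were used as enzyme. Reactions ran 1 hr at room temperature and were stopped with a mix of 45 mM EDTA, 300 nM SA-APC and 6 nM Eu-Py20. The HTRF signal was read after 40 min of antibody binding.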

[1] = target: human JAK1 (a.a. 837-1142) (Homo sapiens, UniProt P23458); test: In vitro JAK kinase assay (HTRF, phosphorylation of a biotinylated peptide), JAK1; details: measured at 1 mM ATP
Procedure, shortened: as §1

[2] = target: human JAK1 (a.a. 837-1142); test: as above; details: ratio of JAK2 IC50 to JAK1 IC50, measured at 1 mM ATP
Procedure, shortened: as §1

Chain of Jak2 (a.a. 828-1132) (O60674 828-1132): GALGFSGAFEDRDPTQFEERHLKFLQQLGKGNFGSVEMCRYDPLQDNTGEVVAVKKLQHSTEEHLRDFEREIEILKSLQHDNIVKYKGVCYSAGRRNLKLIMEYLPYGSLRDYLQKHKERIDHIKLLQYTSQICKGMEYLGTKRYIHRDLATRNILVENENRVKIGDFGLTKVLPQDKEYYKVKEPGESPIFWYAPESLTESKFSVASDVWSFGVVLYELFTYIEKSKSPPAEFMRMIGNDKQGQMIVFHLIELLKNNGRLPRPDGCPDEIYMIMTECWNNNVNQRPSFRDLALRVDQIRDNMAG

SMILES	IC50 (Jak2 (a.a. 828-1132)) [nM]	IC50 [1] [nM]	IC50 Ratio JAK2/JAK1 [2]
Cn1ccc(S(=O)(=O)N2CCC(N3CC(CC#N)(n4cc(-c5ncnc6[nH]ccc56)cn4)C3)CC2)n1 [Example 251, {1-{1-[(1-methyl-1H-pyrazol-3-yl)sulfonyl]piperidin-4-yl}-3-[4-(7H-pyrrolo[2,3-d]pyrimidin-4-yl)-1H-pyrazol-1-yl]azetidin-3-yl}acetonitrile]	≤ 10	≤ 5	4.9
N#CCC1(n2cc(-c3ccnc4[nH]ccc34)cn2)CN(C2CCN(C(=O)c3cc(C(F)(F)F)ncc3Cl)CC2)C1 [Example 298, {1-{1-[5-chloro-2-(trifluoromethyl)isonicotinoyl]piperidin-4-yl}-3-[4-(1H-pyrrolo[2,3-b]pyridin-4-yl)-1H-pyrazol-1-yl]azetidin-3-yl}acetonitrile]	50 to 100	20 to 30	2.8
N#CCC1(n2cc(-c3ncnc4[nH]ccc34)cn2)CN(C2CCN(C(=O)c3cc(CN4CCC(F)(F)C4)nc(C(F)(F)F)n3)CC2)C1 [Example 379, {1-(1-{[6-[(3,3-difluoropyrrolidin-1-yl)methyl]-2-(trifluoromethyl)pyrimidin-4-yl]carbonyl}piperidin-4-yl)-3-[4-(7H-pyrrolo[2,3-d]pyrimidin-4-yl)-1H-pyrazol-1-yl]azetidin-3-yl}acetonitrile (trifluoroacetate salt: 4 TFA)]	50 to 100	≤ 5	36.9
N#CCC1(n2cc(-c3c(F)cnc4[nH]ccc34)cn2)CN(C2CCN(C(=O)c3cnc(C(F)(F)F)cn3)CC2)C1 [Example 354, [3-[4-(5-Fluoro-1H-pyrrolo[2,3-b]pyridin-4-yl)-1H-pyrazol-1-yl]-1-(1-{[5-(trifluoromethyl)pyrazin-2-yl]carbonyl}piperidin-4-yl)azetidin-3-yl]acetonitrile]	10 to 50	5 to 20	2.1
N#CCC1(n2cc(-c3ncnc4[nH]ccc34)cn2)CN([C@@H]2CCN(C(=O)c3ccnc(C(F)(F)F)n3)C[C@@H]2F)C1 (relative stereo) [Example 362, {1-(cis-3-Fluoro-1-{[2-(trifluoromethyl)pyrimidin-4-yl]carbonyl}piperidin-4-yl)-3-[4-(7H-pyrrolo[2,3-d]pyrimidin-4-yl)-1H-pyrazol-1-yl]azetidin-3-yl}acetonitrile]	50 to 100	≤ 5	22.4
N#CCC1(n2cc(-c3ccnc4[nH]ccc34)cn2)CN(C2CCN(C(=O)Nc3ccncc3C(F)(F)F)CC2)C1 [Example 307, 4-{3-(cyanomethyl)-3-[4-(1H-pyrrolo[2,3-b]pyridin-4-yl)-1H-pyrazol-1-yl]azetidin-1-yl}-N-[3-(trifluoromethyl)pyridin-4-yl]piperidine-1-carboxamide]	50 to 100	5 to 20	8.8
Cc1csc(NC(=O)N2CCC(N3CC(CC#N)(n4cc(-c5ncnc6[nH]ccc56)cn4)C3)CC2)n1 [Example 191, 4-{3-(cyanomethyl)-3-[4-(7H-pyrrolo[2,3-d]pyrimidin-4-yl)-1H-pyrazol-1-yl]azetidin-1-yl}-N-(4-methyl-1,3-thiazol-2-yl)piperidine-1-carboxamide]	10 to 50	20 to 30	1.4
N#CCC1(n2ccc(-c3ncnc4[nH]ccc34)c2)CN(C2CCN(C(=O)c3ccc(F)c(C(F)(F)F)c3)CC2)C1 [Example 275, {1-{1-[4-fluoro-3-(trifluoromethyl)benzoyl]piperidin-4-yl}-3-[3-(7H-pyrrolo[2,3-d]pyrimidin-4-yl)-1H-pyrrol-1-yl]azetidin-3-yl}acetonitrile]	10 to 50	5 to 20	3.1
N#CCC1(n2cc(-c3c(F)cnc4[nH]ccc34)cn2)CN(C2CCN(C(=O)c3c(F)cncc3F)CC2)C1 [Example 321, {1-[1-(3,5-difluoroisonicotinoyl)piperidin-4-yl]-3-[4-(5-fluoro-1H-pyrrolo[2,3-b]pyridin-4-yl)-1H-pyrazol-1-yl]azetidin-3-yl}acetonitrile]	10 to 50	≤ 5	3.0
N#CCC1(n2cc(-c3ncnc4[nH]ccc34)cn2)CN(C2CCN(Cc3c(F)cccc3C(F)(F)F)CC2)C1 [Example 213, {1-{1-[2-fluoro-6-(trifluoromethyl)benzyl]piperidin-4-yl}-3-[4-(7H-pyrrolo[2,3-d]pyrimidin-4-yl)-1H-pyrazol-1-yl]azetidin-3-yl}acetonitrile]	10 to 50	≤ 5	9.7
N#CCC1(n2cc(-c3ncnc4[nH]ccc34)cn2)CN(C2CCN(C(=O)c3ncco3)CC2)C1 [Example 16, {1-[1-(1,3-oxazol-2-ylcarbonyl)piperidin-4-yl]-3-[4-(7H-pyrrolo[2,3-d]pyrimidin-4-yl)-1H-pyrazol-1-yl]azetidin-3-yl}acetonitrile]	10 to 50	5 to 20	2.5
N#CCC1(n2cc(-c3ncnc4[nH]ccc34)cn2)CN(C2CCN(C(=O)Nc3ccccc3OC(F)(F)F)CC2)C1 [Example 158, 4-{3-(cyanomethyl)-3-[4-(7H-pyrrolo[2,3-d]pyrimidin-4-yl)-1H-pyrazol-1-yl]azetidin-1-yl}-N-[2-(trifluoromethoxy)phenyl]piperidine-1-carboxamide]	10 to 50	≤ 5	12.0
N#CCC1(n2ccc(-c3ncnc4[nH]ccc34)c2)CN(C2CCN(C(=O)c3ccc(F)c(F)c3)CC2)C1 [Example 277, {1-[1-(3,4-difluorobenzoyl)piperidin-4-yl]-3-[3-(7H-pyrrolo[2,3-d]pyrimidin-4-yl)-1H-pyrrol-1-yl]azetidin-3-yl}acetonitrile]	10 to 50	≤ 5	9.8
N#CCC1(n2cc(-c3ncnc4[nH]ccc34)cn2)CN(C2CCN(C(=O)c3cc(Cl)cc(C(F)(F)F)n3)CC2)C1 [Example 53, {1-(1-{[4-chloro-6-(trifluoromethyl)pyridin-2-yl]carbonyl}piperidin-4-yl)-3-[4-(7H-pyrrolo[2,3-d]pyrimidin-4-yl)-1H-pyrazol-1-yl]azetidin-3-yl}acetonitrile]	10 to 50	≤ 5	9.4
N#CCC1(n2cc(-c3ccnc4[nH]ccc34)cn2)CN(C2CCN(C(=O)Nc3ccc(F)cc3F)CC2)C1 [Example 304, 4-{3-(cyanomethyl)-3-{4-(1H-pyrrolo[2,3-b]pyridin-4-yl)-1H-pyrazol-1-yl]azetidin-1-yl}-N-(2,4-difluorophenyl)piperidine-1-carboxamide]	10 to 50	≤ 5	10.3
N#CCC1(n2cc(-c3ncnc4[nH]ccc34)cn2)CN(C2CCN(C(=O)Nc3cc(F)cc(F)c3F)CC2)C1 [Example 173, 4-{3-(cyanomethyl)-3-[4-(7H-pyrrolo[2,3-d]pyrimidin-4-yl)-1H-pyrazol-1-yl]azetidin-1-yl}-N-(2,3,5-trifluorophenyl)piperidine-1-carboxamide]	10 to 50	5 to 20	5.7
N#CCC1(n2cc(-c3ncnc4[nH]ccc34)cn2)CN(C2CCN(C(=O)c3ccc(-c4ccc(C#N)c(F)c4)c(F)c3)CC2)C1 [Example 119, 4′-[(4-{3-(cyanomethyl)-3-[4-(7H-pyrrolo[2,3-d]pyrimidin-4-yl)-1H-pyrazol-1-yl]azetidin-1-yl}piperidin-1-yl)carbonyl]-2′,3-difluorobiphenyl-4-carbonitrile]	10 to 50	≤ 5	14.0
Cc1ncccc1NC(=O)N1CCC(N2CC(CC#N)(n3cc(-c4ncnc5[nH]ccc45)cn3)C2)CC1 [Example 198, 4-{3-(cyanomethyl)-3-[4-(7H-pyrrolo[2,3-d]pyrimidin-4-yl)-1H-pyrazol-1-yl]azetidin-1-yl}-N-(2-methylpyridin-3-yl)piperidine-1-carboxamide]	10 to 50	≤ 5	4.4
N#CCC1(n2cc(-c3ncnc4[nH]ccc34)cn2)CN(C2CCN(C(=O)Nc3ncccc3C(F)(F)F)CC2)C1 [Example 201, 4-{3-(cyanomethyl)-3-[4-(7H-pyrrolo[2,3-d]pyrimidin-4-yl)-1H-pyrazol-1-yl]azetidin-1-yl}-N-[3-(trifluoromethyl)pyridin-2-yl]piperidine-1-carboxamide]	10 to 50	5 to 20	3.6
N#CCC1(n2ccc(-c3ncnc4[nH]ccc34)c2)CN(C2CCN(C(=O)c3ccc(O)c(C(F)(F)F)c3)CC2)C1 [Example 282, {1-{1-[4-hydroxy-3-(trifluoromethyl)benzoyl]piperidin-4-yl}-3-[3-(7H-pyrrolo[2,3-d]pyrimidin-4-yl)-1H-pyrrol-1-yl]azetidin-3-yl}acetonitrile]	10 to 50	5 to 20	3.4
N#CCC1(n2cc(-c3ncnc4[nH]ccc34)cn2)CN(C2CCN(C(=O)c3c(F)cccc3C(F)(F)F)CC2)C1 [Example 45, {1-{1-[2-fluoro-6-(trifluoromethyl)benzoyl]piperidin-4-yl}-3-[4-(7H-pyrrolo[2,3-d]pyrimidin-4-yl)-1H-pyrazol-1-yl]azetidin-3-yl}acetonitrile]	10 to 50	≤ 5	3.1
N#CCC1(n2cc(-c3ncnc4[nH]ccc34)cn2)CN(C2CC3CCC(C2)N3C(=O)c2ccc(Cl)c(F)c2)C1 (stereo not drawn) [Example 141, {1-[8-(4-chloro-3-fluorobenzoyl)-8-azabicyclo[3.2.1]oct-3-yl]-3-[4-(7H-pyrrolo[2,3-d]pyrimidin-4-yl)-1H-pyrazol-1-yl]azetidin-3-yl}acetonitrile]	≤ 10	≤ 5	6.2
